The assay deals with KRas G12D (Homo sapiens (Human), UniProt P01116, G12D). Description: KRas G12D Binding Assay (TR-FRET displacement of Cy5 labelled tracer). Conditions: GDP-loaded KRAS G12D (amino acids 1:169), 60 minute incubation at 22° C. The procedure: After a 60 minute incubation at 22° C., the reaction was measured using a PerkinElmer EnVision multimode plate reader via TR-FRET dual wavelength detection, and the percent of control (POC) calculated using a ratiometric emission factor. […] The POC values were fit to a 4-parameter logistic curve and the IC50 value was determined as the concentration where the curve crosses 50 POC.
ND stands for “not determined.”

KRas G12D, sequence (P01116 other isoform, or with tags, fused parts or gaps G12D): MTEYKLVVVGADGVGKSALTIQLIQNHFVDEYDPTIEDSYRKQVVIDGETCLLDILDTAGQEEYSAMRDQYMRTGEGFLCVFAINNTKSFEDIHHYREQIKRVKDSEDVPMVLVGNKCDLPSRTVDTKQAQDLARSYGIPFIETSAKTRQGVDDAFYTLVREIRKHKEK

`Fc1c(-c2cccc3cccc(Cl)c23)ncc2c(N3C[C@H]4CC[C@@H](C3)N4)nc(OC[C@@H]3CCCO3)nc12` [Example 136, 4-((1R,5S)-3,8-diazabicyclo[3.2.1]octan-3-yl)-7-(8-chloronaphthalen-1-yl)-8-fluoro-2-(((S)-tetrahydrofuran-2-yl)methoxy)pyrido[4,3-d]pyrimidine] yielded a concentration for half-maximal inhibition (IC50) of 5150 nM.

For the compound `CCc1cccc2cc(O)cc(-c3ncc4c(N5C[C@H]6CC[C@@H](C5)N6)ncnc4c3F)c12` [Example 449, 4-(4-((1R,5S)-3,8-diazabicyclo[3.2.1]octan-3-yl)-8-fluoropyrido[4,3-d]pyrimidin-7-yl)-5-ethylnaphthalen-2-ol], the IC50 was determined as 71 nM.

`CCc1cccc2cc(O)cc(-c3ncc4c(N5CC6CCC(C5)N6)nc(OC[C@]56CCCN5[C@@H](COC(=O)N(C)C)CC6)nc4c3F)c12` [Example 434, 7a-(((4-((1R,5S)-3,8-diazabicyclo[3.2.1]octan-3-yl)-7-(8-ethyl-3-hydroxynaphthalen-1-yl)-8-fluoropyrido[4,3-d]pyrimidin-2-yl)oxy)methyl)hexahydro-1H-pyrrolizin-3-yl)methyl dimethyl carbamate] displayed an IC50 of 0.7 nM. This IC50 lies about 100-fold lower than the previous one.

Turning to `Fc1c(-c2cccc3c2OC(F)(F)O3)ncc2c(N3C[C@H]4CC[C@@H](C3)N4)nc(OCC34CCCN3CCC4)nc12` [Example 196, 4-((1R,5S)-3,8-diazabicyclo[3.2.1]octan-3-yl)-7-(2,2-difluorobenzo[d][1,3]dioxol-4-yl)-8-fluoro-2-((tetrahydro-1H-pyrrolizin-7a(5H)-yl)methoxy)pyrido[4,3-d]pyrimidine], the IC50 came out at 467 nM.

In the case of `CCNc1c(F)cccc1-c1ncc2c(N3C[C@H]4CC[C@@H](C3)N4)nc(OCC34CCCN3CCC4)nc2c1F` [Example 269, 2-(4-((1R,5S)-3,8-diazabicyclo[3.2.1]octan-3-yl)-8-fluoro-2-((hexahydro-1H-pyrrolizin-7a-yl)methoxy)pyrido[4,3-d]pyrimidin-7-yl)-N-ethyl-6-fluoroaniline], the IC50 turned out to be 4040 nM.

`Cc1cccc(-c2ncc3c(N4C[C@H]5CC[C@@H](C4)N5)nc(OCC45CCCN4CCC5)nc3c2F)c1C(C)C` [Example 301, 4-((1R,5S)-3,8-diazabicyclo[3.2.1]octan-3-yl)-8-fluoro-2-((hexahydro-1H-pyrrolizin-7a-yl)methoxy)-7-(2-isopropyl-3-methylphenyl)pyrido[4,3-d]pyrimidine] showed an IC50 of 35.1 nM.

The compound `Oc1cc(Cl)c(C2CC2)c(-c2ncc3c(N4C[C@H]5CC[C@@H](C4)N5)nc(OC[C@@]45CCCN4C[C@H](F)C5)nc3c2F)c1` [Example 283, 3-(4-((1R,5S)-3,8-diazabicyclo[3.2.1]octan-3-yl)-8-fluoro-2-(((2R,7aS)-2-fluorohexahydro-1H-pyrrolizin-7a-yl)methoxy)pyrido[4,3-d]pyrimidin-7-yl)-5-chloro-4-cyclopropylphenol] displayed an IC50 of 0.7 nM. This IC50 lies about 50-fold lower than the previous one.

On to `Fc1ccc2cccc(-c3ncc4c(N5C[C@H]6CC[C@@H](C5)N6)nc(OCC56CCCN5CCC6)nc4c3F)c2c1F` [Example 464, 4-((1R,5S)-3,8-diazabicyclo[3.2.1]octan-3-yl)-7-(7,8-difluoronaphthalen-1-yl)-8-fluoro-2-((hexahydro-1H-pyrrolizin-7a-yl)methoxy)pyrido[4,3-d]pyrimidine], for which the IC50 was found to be 0.007 nM.

For `CN(C)Cc1ccc(COCCNC(=O)O[C@@H]2C[C@@H](COc3nc(N4C[C@H]5CC[C@@H](C4)N5)c4cnc(-c5cccc6cccc(Cl)c56)c(F)c4n3)N(C)C2)cc1` [Example 308, (3R,5S)-5-(((4-((1R,5S)-3,8-diazabicyclo[3.2.1]octan-3-yl)-7-(8-chloronaphthalen-1-yl)-8-fluoropyrido[4,3-d]pyrimidin-2-yl)oxy)methyl)-1-methylpyrrolidin-3-yl (2-((4-((dimethylamino)methyl)benzyl)oxy)ethyl)carbamate], the concentration for half-maximal inhibition (IC50) came to 117 nM.

Broadly, the IC50 is the concentration needed to halve the response being measured.

Values taken from patent US20230279025A1, “KRAS G12D INHIBITORS” (Mirati Therapeutics, Inc., priority 2020, published 2023).
